Assay results reported in ChEMBL document CHEMBL1125022, “Chiral modifications of dolastatin 10: the potent cytostatic peptide (19aR)-isodolastatin 10” (1990).
Values after ≈ are worked out from the molar mass of the structure shown.

These molecules were tested on P388 (assay: Effect against cell growth of the P388 lymphocytic leukemia (PS system)). Conditions: Mus musculus, read-out: ED50 (the source's name).
Format: functional

SMILES	EC50
CC[C@@H](C)[C@@H]([C@@H](CC(=O)N1CCC[C@H]1[C@@H](OC)[C@@H](C)C(=O)N[C@@H](Cc1ccccc1)c1nccs1)OC)N(C)C(=O)[C@@H](NC(=O)[C@H](C(C)C)N(C)C)C(C)C	3.9 ng/mL (≈ 4.97 nM)
CC[C@@H](C)[C@@H]([C@@H](CC(=O)N1CCC[C@H]1[C@H](OC)[C@H](C)C(=O)N[C@@H](Cc1ccccc1)c1nccs1)OC)N(C)C(=O)[C@@H](NC(=O)[C@H](C(C)C)N(C)C)C(C)C	5.6 ng/mL (≈ 7.13 nM)
CC[C@@H](C)[C@H]([C@H](CC(=O)N1CCC[C@H]1[C@H](OC)[C@@H](C)C(=O)N[C@@H](Cc1ccccc1)c1nccs1)OC)N(C)C(=O)[C@@H](NC(=O)[C@H](C(C)C)N(C)C)C(C)C	3.2 ng/mL (≈ 4.08 nM)
CCC(C)[C@H]([C@H](CC(=O)N1CCC[C@H]1[C@H](OC)[C@@H](C)C(=O)N[C@@H](Cc1ccccc1)c1nccs1)OC)N(C)C(=O)[C@@H](NC(=O)[C@H](C(C)C)N(C)C)C(C)C (some centres undefined)	3.2 ng/mL (≈ 4.08 nM)
CCC(C)[C@@H]([C@@H](CC(=O)N1CCC[C@H]1[C@H](OC)[C@H](C)C(=O)N[C@@H](Cc1ccccc1)c1nccs1)OC)N(C)C(=O)[C@@H](NC(=O)[C@H](C(C)C)N(C)C)C(C)C (some centres undefined)	1.6 ng/mL (≈ 2.04 nM)
CCC(C)[C@H]([C@@H](CC(=O)N1CCC[C@H]1[C@H](OC)[C@H](C)C(=O)N[C@@H](Cc1ccccc1)c1nccs1)OC)N(C)C(=O)[C@@H](NC(=O)[C@H](C(C)C)N(C)C)C(C)C (some centres undefined)	> 1000 ng/mL
CCC(C)[C@H]([C@H](CC(=O)N1CCC[C@H]1[C@H](OC)[C@H](C)C(=O)N[C@@H](Cc1ccccc1)c1nccs1)OC)N(C)C(=O)[C@@H](NC(=O)[C@H](C(C)C)N(C)C)C(C)C (some centres undefined)	270 ng/mL (≈ 344 nM)
CCC(C)[C@@H]([C@H](CC(=O)N1CCC[C@H]1[C@H](OC)[C@H](C)C(=O)N[C@@H](Cc1ccccc1)c1nccs1)OC)N(C)C(=O)[C@@H](NC(=O)[C@H](C(C)C)N(C)C)C(C)C (some centres undefined)	620 ng/mL (≈ 790 nM)
CC[C@@H](C)[C@H]([C@H](CC(=O)N1CCC[C@H]1[C@@H](OC)[C@H](C)C(=O)N[C@@H](Cc1ccccc1)c1nccs1)OC)N(C)C(=O)[C@@H](NC(=O)[C@H](C(C)C)N(C)C)C(C)C	630 ng/mL (≈ 802 nM)
CC[C@@H](C)[C@@H]([C@H](CC(=O)N1CCC[C@H]1[C@H](OC)[C@@H](C)C(=O)N[C@@H](Cc1ccccc1)c1nccs1)OC)N(C)C(=O)[C@@H](NC(=O)[C@H](C(C)C)N(C)C)C(C)C	600 ng/mL (≈ 764 nM)
CC[C@@H](C)[C@H]([C@H](CC(=O)N1CCC[C@H]1[C@@H](OC)[C@@H](C)C(=O)N[C@@H](Cc1ccccc1)c1nccs1)OC)N(C)C(=O)[C@@H](NC(=O)[C@H](C(C)C)N(C)C)C(C)C	200 ng/mL (≈ 255 nM)
CC[C@@H](C)[C@@H]([C@@H](CC(=O)N1CCC[C@H]1[C@H](OC)[C@@H](C)C(=O)N[C@@H](Cc1ccccc1)c1nccs1)OC)N(C)C(=O)[C@@H](NC(=O)[C@H](C(C)C)N(C)C)C(C)C	0.049 ng/mL (≈ 0.0624 nM)
CC[C@@H](C)[C@H]([C@H](CC(=O)N1CCC[C@H]1[C@H](OC)[C@H](C)C(=O)N[C@@H](Cc1ccccc1)c1nccs1)OC)N(C)C(=O)[C@@H](NC(=O)[C@H](C(C)C)N(C)C)C(C)C	150 ng/mL (≈ 191 nM)
CC[C@@H](C)[C@@H]([C@H](CC(=O)N1CCC[C@H]1[C@H](OC)[C@H](C)C(=O)N[C@@H](Cc1ccccc1)c1nccs1)OC)N(C)C(=O)[C@@H](NC(=O)[C@H](C(C)C)N(C)C)C(C)C	410 ng/mL (≈ 522 nM)
CC[C@@H](C)[C@H]([C@@H](CC(=O)N1CCC[C@H]1[C@@H](OC)[C@H](C)C(=O)N[C@@H](Cc1ccccc1)c1nccs1)OC)N(C)C(=O)[C@@H](NC(=O)[C@H](C(C)C)N(C)C)C(C)C	> 1000 ng/mL
CC[C@@H](C)[C@H]([C@@H](CC(=O)N1CCC[C@H]1[C@H](OC)[C@H](C)C(=O)N[C@@H](Cc1ccccc1)c1nccs1)OC)N(C)C(=O)[C@@H](NC(=O)[C@H](C(C)C)N(C)C)C(C)C	> 1000 ng/mL
CC[C@@H](C)[C@@H]([C@@H](CC(=O)N1CCC[C@H]1[C@@H](OC)[C@H](C)C(=O)N[C@@H](Cc1ccccc1)c1nccs1)OC)N(C)C(=O)[C@@H](NC(=O)[C@H](C(C)C)N(C)C)C(C)C	39 ng/mL (≈ 49.7 nM)
CC[C@@H](C)[C@@H]([C@H](CC(=O)N1CCC[C@H]1[C@@H](OC)[C@H](C)C(=O)N[C@@H](Cc1ccccc1)c1nccs1)OC)N(C)C(=O)[C@@H](NC(=O)[C@H](C(C)C)N(C)C)C(C)C	> 1000 ng/mL
CC[C@H](C)[C@@H]([C@@H](CC(=O)N1CCC[C@H]1[C@H](OC)[C@@H](C)C(=O)N[C@@H](Cc1ccccc1)c1nccs1)OC)N(C)C(=O)[C@@H](NC(=O)[C@H](C(C)C)N(C)C)C(C)C [DOLASTATIN-10]	1 ng/mL (≈ 1.27 nM)
